Experimental data reported in patent US12083196B2, “Personal cleansing compositions with surfactants for increased foam performance” (ECOLAB USA INC., priority 2020, dated 2024).

Experiment: SITA Foam Analyzer foam creation
Type: physicochemical
Excerpt: The reagents used below include: • Alpha-Step® PC-48 is a C10-16 sodium methyl 2-sulfolaurate and disodium 2-sulfolaurate available from Stepan; • Stepan-Mild® L3 is a predominantly C12 reaction product of lauryl alcohol and lactic acid available from Stepan; • SLES is sodium laureth sulfate; • Cola® Teric is an amphoteric sultaine available from Colonial Chemical, Inc.; • Glucopon® […] is an alkyl polyglycoside available from BASF Corporation; • Suga® Nate is a sodium laurylglucosides hydrooxypropylsulfonate available from Colonial Chemicals, Inc; • Lathanol® LAL is a sodium lauryl sulfoacetate available from Stepan. All experiments ran through the SITA Foam Analyzer were as follows: Equipment: • 1) Foaming Apparatus • 2) SITA Software Reagents: • 1) 250 mL of each solution • 2) DI water Preparation: Equipment is prepared by turning the water bath on with ample time to warm up before running tests. Adjust water bath to desired temperature. Quality Assurance: Run a positive and negative control for every experiment. Ensure equipment is clean and free from any residual surfactant chemistry beforehand. In each experiment set, proper differentiation between chemistries can be seen if at least one of the tested chemistries has an “S” curve that depicts a change in the initial foam building and the lathering step. Experimental Procedure: • 1) Prepare water bath • 2) Open the “SITA-foam” software on the computer. […] Foam Generation • i. Series Count (cycles): number of measurement replicates (3-triplicate) • ii. Fill With: Volume of sample liquid (250 mL for each test) • iii. Stir Count: Number of stirrings for each test (70). This is also the number of measurements for each cycle. • iv. Stir Time: Stirring duration of sample (10 sec) • v. Revolution: RPM o the stirrer (900 RMP) • b. Cleansing • i. Click the shower icon to activate the automatic cleansing and rinsing function. The vessel will be cleaned automatically after each cycle of measurements. • ii. Normal cleansing will rinse out the vessel many times. Small cleansing indicates a faster cleansing process. All above parameters can be saved • 5) After setting the parameters, click on “Start Measurement” which is the green “Play” button to proceed with the experiment • 6) After each cycle of experiments automatic cleansing and rinsing is done in preparation for the next cycle of measurements as long as the instrument is connected to tap water or a cleansing liquid reservoir • 7) Each click on the green “Start Measurement” icon opens a new window. The current sample measurement results are all in the same project folder. To rename sample measurement files, right click on the open sample window, and click “save” to rename your sample file • 8) If an error occurs at any point with your sample, the measurement reading can be stopped by clicking the red square “Stop icon” or by pressing the large red button on the machine • 9) Organize the graph generated with the icons in the fourth section of the tool bar: create new plot, add/remove data from plot, change axis properties, and view properties. Click on the “Create new plot” icon to view the plot after the experiment is done or if it is still running. Right click to rename the plot, insert or remove the plot and display the foam buildup, foam decay, or both Establishing initial foaming of the single surfactants is important to establish baselines for comparison for the combinations of various surfactants. To establish the foaming properties of single surfactants, a high amount of each surfactant was analyzed in the SITA Foam Analyzer as described above. The final concentration of each surfactant in solution was 1%. The surfactants tested were sodium lauryl sulfate (SLES), a betaine, Cola® Teric CBS, Glucopon® […], Lathanol® LAL, and Suga® Nate 160NC. […] The compositions were tested for foaming using the SITA Foam Analyzer as described above. […]

Substance: sodium laureth sulfate [SLES]
- ability to reach saturation of foam (in words) (SLES 0.2 wt. %, second surfactant 0.005 wt. %, FIG. 3): unable to reach saturation
- foam height (cycle 0, SLES 0.2 wt. %, second surfactant 0.005 wt. %): 0 mL
- foam height (cycle 1, SLES 0.2 wt. %, second surfactant 0.005 wt. %): 147.3 mL
- foam height (cycle 2, SLES 0.2 wt. %, second surfactant 0.005 wt. %): 161 mL
- foam height (cycle 3, SLES 0.2 wt. %, second surfactant 0.005 wt. %): 168.3 mL
- foam height (cycle 4, SLES 0.2 wt. %, second surfactant 0.005 wt. %): 172.67 mL
- foam height (cycle 5, SLES 0.2 wt. %, second surfactant 0.005 wt. %): 174 mL
- foam height (cycle 6, SLES 0.2 wt. %, second surfactant 0.005 wt. %): 177 mL
- foam height (cycle 7, SLES 0.2 wt. %, second surfactant 0.005 wt. %): 185.67 mL
- foam height (cycle 8, SLES 0.2 wt. %, second surfactant 0.005 wt. %): 188.3 mL
- foam height (cycle 9, SLES 0.2 wt. %, second surfactant 0.005 wt. %): 193.67 mL
- foam height (cycle 10, SLES 0.2 wt. %, second surfactant 0.005 wt. %): 200 mL
- foam height (cycle 11, SLES 0.2 wt. %, second surfactant 0.005 wt. %): 202.3 mL
- foam height (cycle 12, SLES 0.2 wt. %, second surfactant 0.005 wt. %): 204.67 mL
- foam height (cycle 13, SLES 0.2 wt. %, second surfactant 0.005 wt. %): 210 mL
- foam height (cycle 14, SLES 0.2 wt. %, second surfactant 0.005 wt. %): 213 mL
- foam height (cycle 15, SLES 0.2 wt. %, second surfactant 0.005 wt. %): 217 mL
- foam height (cycle 16, SLES 0.2 wt. %, second surfactant 0.005 wt. %): 219.3 mL
- foam height (cycle 17, SLES 0.2 wt. %, second surfactant 0.005 wt. %): 221.3 mL
- foam height (cycle 18, SLES 0.2 wt. %, second surfactant 0.005 wt. %): 222.67 mL
- foam height (cycle 19, SLES 0.2 wt. %, second surfactant 0.005 wt. %): 224.3 mL
- foam height (cycle 20, SLES 0.2 wt. %, second surfactant 0.005 wt. %): 227.67 mL
- foam height (cycle 21, SLES 0.2 wt. %, second surfactant 0.005 wt. %): 228.3 mL
- foam height (cycle 22, SLES 0.2 wt. %, second surfactant 0.005 wt. %): 231 mL
- foam height (cycle 23, SLES 0.2 wt. %, second surfactant 0.005 wt. %): 232.67 mL
- foam height (cycle 24, SLES 0.2 wt. %, second surfactant 0.005 wt. %): 234.3 mL
- foam height (cycle 25, SLES 0.2 wt. %, second surfactant 0.005 wt. %): 235.3 mL
- foam height (cycle 26, SLES 0.2 wt. %, second surfactant 0.005 wt. %): 237 mL
- foam height (cycle 27, SLES 0.2 wt. %, second surfactant 0.005 wt. %): 237.67 mL
- foam height (cycle 28, SLES 0.2 wt. %, second surfactant 0.005 wt. %): 239 mL
- foam height (cycle 29, SLES 0.2 wt. %, second surfactant 0.005 wt. %): 239.67 mL
- foam height (cycle 30, SLES 0.2 wt. %, second surfactant 0.005 wt. %): 240 mL
- foam height (cycle 31, SLES 0.2 wt. %, second surfactant 0.005 wt. %): 240.67 mL
- foam height (cycle 32, SLES 0.2 wt. %, second surfactant 0.005 wt. %): 241.3 mL
- foam height (cycle 33, SLES 0.2 wt. %, second surfactant 0.005 wt. %): 242.3 mL
- foam height (cycle 34, SLES 0.2 wt. %, second surfactant 0.005 wt. %): 243 mL
- foam height (cycle 35, SLES 0.2 wt. %, second surfactant 0.005 wt. %): 243 mL
- foam height (cycle 36, SLES 0.2 wt. %, second surfactant 0.005 wt. %): 243.67 mL
- foam height (cycle 37, SLES 0.2 wt. %, second surfactant 0.005 wt. %): 244 mL
- foam height (cycle 38, SLES 0.2 wt. %, second surfactant 0.005 wt. %): 245.3 mL
- foam height (cycle 39, SLES 0.2 wt. %, second surfactant 0.005 wt. %): 245 mL
- foam height (cycle 40, SLES 0.2 wt. %, second surfactant 0.005 wt. %): 245 mL
- foam height (cycle 41, SLES 0.2 wt. %, second surfactant 0.005 wt. %): 245.67 mL
- foam height (cycle 42, SLES 0.2 wt. %, second surfactant 0.005 wt. %): 246 mL
- foam height (cycle 43, SLES 0.2 wt. %, second surfactant 0.005 wt. %): 246 mL
- foam height (cycle 44, SLES 0.2 wt. %, second surfactant 0.005 wt. %): 246.67 mL
- foam height (cycle 45, SLES 0.2 wt. %, second surfactant 0.005 wt. %): 246.67 mL
- foam height (cycle 46, SLES 0.2 wt. %, second surfactant 0.005 wt. %): 246.67 mL
- foam height (cycle 47, SLES 0.2 wt. %, second surfactant 0.005 wt. %): 247 mL
- foam height (cycle 48, SLES 0.2 wt. %, second surfactant 0.005 wt. %): 247.67 mL
- foam height (cycle 49, SLES 0.2 wt. %, second surfactant 0.005 wt. %): 247.67 mL
- foam height (cycle 50, SLES 0.2 wt. %, second surfactant 0.005 wt. %): 248 mL
- foam height (cycle 51, SLES 0.2 wt. %, second surfactant 0.005 wt. %): 248.67 mL
- foam height (cycle 52, SLES 0.2 wt. %, second surfactant 0.005 wt. %): 248.67 mL
- foam height (cycle 53, SLES 0.2 wt. %, second surfactant 0.005 wt. %): 248.67 mL
- foam height (cycle 54, SLES 0.2 wt. %, second surfactant 0.005 wt. %): 250 mL
- foam height (cycle 55, SLES 0.2 wt. %, second surfactant 0.005 wt. %): 250.3 mL
- foam height (cycle 56, SLES 0.2 wt. %, second surfactant 0.005 wt. %): 251.3 mL
- foam height (cycle 57, SLES 0.2 wt. %, second surfactant 0.005 wt. %): 250.3 mL
- foam height (cycle 58, SLES 0.2 wt. %, second surfactant 0.005 wt. %): 250 mL
- foam height (cycle 59, SLES 0.2 wt. %, second surfactant 0.005 wt. %): 251 mL
- foam height (cycle 60, SLES 0.2 wt. %, second surfactant 0.005 wt. %): 251.3 mL
- foam height (cycle 61, SLES 0.2 wt. %, second surfactant 0.005 wt. %): 251.67 mL
- foam height (cycle 62, SLES 0.2 wt. %, second surfactant 0.005 wt. %): 252.67 mL
- foam height (cycle 63, SLES 0.2 wt. %, second surfactant 0.005 wt. %): 252 mL
- foam height (cycle 64, SLES 0.2 wt. %, second surfactant 0.005 wt. %): 253 mL
- foam height (cycle 65, SLES 0.2 wt. %, second surfactant 0.005 wt. %): 253.67 mL
- foam height (cycle 66, SLES 0.2 wt. %, second surfactant 0.005 wt. %): 253.67 mL
- foam height (cycle 67, SLES 0.2 wt. %, second surfactant 0.005 wt. %): 253.67 mL
- foam height (cycle 68, SLES 0.2 wt. %, second surfactant 0.005 wt. %): 253 mL
- foam height (cycle 69, SLES 0.2 wt. %, second surfactant 0.005 wt. %): 253 mL
- foam height (cycle 70, SLES 0.2 wt. %, second surfactant 0.005 wt. %): 254 mL
- onset of foam saturation (in words) (single surfactant, 1%, FIG. 1): taking the longest to reach saturation
